Results: patent publication US8871280B1, “Compositions and methods for treating fungal activity in plants or soil” (The United States of America, as represented by the …, priority 2011, dated 2014)

How the values were obtained:
[1] = system: Rhizoctonia solani; assay: Filter disk fumigation method, mycelial growth inhibition on PDA; type: cell-based, Rhizoctonia solani AG-4, isolate Rs 23A; settings: for Fumig1 % inhibition: fumigation experiment 1; for Fumig2 % inhibition: fumigation experiment 2; for Inhibition of R. solani growth by fumigation action, in words: in vitro, filter disk
Method: (§1) Fungal isolate and preparation of inoculum: Rhizoctonia solani AG-4, isolate Rs 23A is a highly virulent pathogenic isolate which infects many vegetables, ornamentals and turfgrasses (Lewis, J. A., and G. C. Papavizas, Soil Biology and Biochemistry, 9:195-201 (1987)). The fungus was grown in potato dextrose agar (PDA) plates and fungal plugs from the freshly growing mycelium were mixed with moist sterilized cracked wheat in a 2 L flask for 15 days in dark at 22° C. (Lakshman, D. K., et al., Proceedings of the National Academy of Science, USA, 95: 6425-6429 (1998)). The infested wheat was air dried in a sterile hood for 3 days, blended in a homogenizer and sieved through a mesh and stored at 2° C. before soil inoculation. A dose response of the inocula was carried out by thoroughly mixing using 0.25, 0.5, 0.75, 1.0, 1.25 and 1.50 g inoculums per Kg dry weight potting soil plus sterile water to maintain 25-30% moisture and incubating at room temperature for two weeks before sowing cucumber (cv muncher) seeds with the infested soil. The percent germination and post-emergence damping off of cucumber seedlings were recorded. The lowest inoculums dose that induced 100% postemergence damping off was estimated to be 1 to 1.25 g/Kg soil for inocula prepared over the span of the experiments. For soil fumigation with plant extracts (PEs), each time the minimum inoculum dose giving rise to 100% damping off was used.
In the second protocol, the chemical was kept not in direct contact with the fungus and we hypothesized that the plant extract will most likely influence the growth of the pathogen by fumigation action. In this approach, three sterile 15 mm filter paper (Whatman International Ltd, Maidstone, UK) disks were placed on the edge of each of three plates on the PDA. Each disk was impregnated in the center with various amounts (5-50 ul/disk) of the test solution/suspension. For negative control, only soybean oil was placed in the filter disk. […] The average radial growth was calculated and the experiment was repeated one more time. Percent growth inhibition was calculated as reported for poison bed assay.

[2] = system: Rhizoctonia solani; assay: Poison food technique (contact action), mycelial growth inhibition in PDA; type: cell-based, Rhizoctonia solani AG-4, isolate Rs 23A; settings: for PoisonB1 % inhibition: poison bed experiment 1; for PoisonB2 % inhibition: poison bed experiment 2; for Inhibition of R. solani growth by contact (poison bed assay), in words: in vitro, PDA
Method: as §1
In vitro bioassays: Two in vitro bioassay methods were used to investigate the mycelial growth inhibitory potentials of PEs. In the poison food technique, test chemical/plant extract was mixed at concentrations of 15, 30, 45, 60, 75, and 150 μl per 20 ml autoclaved PDA at 50° C., poured on three sterile disposable plastic plates (100×15 mm, Fisherbrand) at 20 ml/plate and cooled to room temperature to solidify (Dhingra, O.D., and J. B. Sinclair, 1995, Basic Plant Pathology Methods, 2nd Edition, Lewis Publishers, Boca Raton and London). […] Each plate was seeded in the center with a 5 mm diameter agar disk of the freshly grown Rhizoctonia pathogen, mycelial side facing the medium, and sealed with stretched Parafilm® M (Fisher Scientific). The plates were incubated in the dark at room temperature and when the pathogen reached to the edge of the plates in the control treatment (soybean oil), radial measurement of fungal growth in plates treated with PEs were recorded by taking three measurements from each plate. The experiment was repeated one more time. The percent mycelial growth inhibition (MGI) due to PE was calculated using the following formula: […] where dc=Avg. radial growth in mm of pathogen in control plate; dt=avg. radial growth in mm of pathogen in treated plate.

[3] = system: Rhizoctonia solani; assay: Fungicidal vs fungistatic potential (regrowth of mycelial plugs on fresh PDA, 7 days); type: cell-based, Rhizoctonia solani AG-4, isolate Rs 23A
Method: The fungicidal and fungistatic potential of the PEs were determined by the method described by Garber and Houstan (Garber R. H., and B. R. Houston, Phytopathology, 49: 449-450 (1959)). In brief, three 5 mm diameter plugs were taken from the peripheral mycelial growth from each plate and placed in a fresh PDA plate. Following incubation at room temperature for 7 days, observations were recorded for new mycelial growth (fungistatic) or no mycelial growth (fungicidal). As control, peripheral mycelial plugs from soybean oil amended PDA plates were checked for fresh mycelial growth in fresh PDA plates.

[4] = system: Rhizoctonia solani; assay: Greenhouse suppression of damping off of cucumber seedlings in R. solani infested soil amended with plant extract; type: in vivo, Rhizoctonia solani AG-4, isolate Rs 23A; settings: for % Disease suppression (+ PE + R. solani): cucumber damping off, soil amendment at 0.3% (v/w), four weeks after sowing; for Avg. seed Germination (+ PE + R. solani): cucumber, 12 seeds sown per pot, infested soil amended with 0.3% PE
[5] = system: cucumber seeds; assay: Greenhouse assay of seed germination and phytotoxicity, soil treated with plant extract alone; settings: in vivo
Method: Soil treatment: For each treatment, 300 g of dry greenhouse soli (Pro-mix, Premier Horticulture LTD, Red Hill, Pa.) was thoroughly mixed with Rhizoctonia inoculum and incubated for 15 days as described above. […] The infested soil treated with only the carrier solution served as an untreated control. Following the treatment, the soil was thoroughly stirred to mix the contents and incubated in a double polythene bag closed tightly in the dark at room temperature for four days for fumigation to occur. Following the incubation, the bag was opened to allow as much PE to dissipate as possible. This was done by sprinkling the surface soil with sterile water every other day, and stirring the soil once every day for seven days. For assay of effect on seed germination and phytotoxicity of the plant extracts, soil was treated with plant extract formulations alone.
Greenhouse studies: Treated soil from each treatment was distributed to 4-inch plastic pots into which 12 seeds of cucumbers (95-100% germination) were sown and lightly watered to keep soil moist. The treatments were color coded and pots were randomized across treatment. All plants were kept in a greenhouse between 20° C. (night) to 26° C. (day) with 14 h of light. There were three pots per treatment in each experiment, and the experiment was repeated three times. As positive control, a broad spectrum popular soil fungicide Banrot® 40 WP (The Scotts Company, Ohio) was used following manufacturer's recommendation to control the disease. Total number of seedlings without any sign of damping off in each pot was recorded and percentage of disease suppression were calculated four weeks after sowing cucumber seeds.

[6] = cucumber, 0.3 % of PE in soil (3000 ppm)

Q: `C=CCc1ccc(OC)cc1` was tested. Which Fumig1 % inhibition ([1]; amount oil 15 μL/20 mL plate) did it give?
A: 95%

Q: What about the Fumig2 % inhibition ([1]; amount oil 15 μL/20 mL plate) of the same compound?
A: 97%

Q: What about the Fumig1 % inhibition ([1]; amount oil 30 μL/20 mL plate) of the same compound?
A: 97%

Q: What about the Fumig2 % inhibition ([1]; amount oil 30 μL/20 mL plate) of the same compound?
A: 102%

Q: And the Fumig1 % inhibition ([1]; amount oil 45 μL/20 mL plate)?
A: 97%

Q: What about the Fumig2 % inhibition ([1]; amount oil 45 μL/20 mL plate) of the same compound?
A: 102%

Q: And the Fumig1 % inhibition ([1]; amount oil 60 μL/20 mL plate)?
A: 97%

Q: And the Fumig2 % inhibition ([1]; amount oil 60 μL/20 mL plate)?
A: 100%

Q: And the Fumig1 % inhibition ([1]; amount oil 75 μL/20 mL plate)?
A: 98%

Q: And the Fumig2 % inhibition ([1]; amount oil 75 μL/20 mL plate)?
A: 103%

Q: What about the Fumig1 % inhibition ([1]; amount oil 150 μL/20 mL plate) of the same compound?
A: 99%

Q: And the Fumig2 % inhibition ([1]; amount oil 150 μL/20 mL plate)?
A: 103%

Q: And the “Inhibition of R. solani growth by fumigation action, in words” value [1]?
A: potent inhibitors

Q: What about the PoisonB1 % inhibition ([2]; amount oil 15 μL/20 mL plate) of the same compound?
A: 94%

Q: And the PoisonB2 % inhibition ([2]; amount oil 15 μL/20 mL plate)?
A: 13%

Q: And the PoisonB1 % inhibition ([2]; amount oil 30 μL/20 mL plate)?
A: 100%

Q: What about the PoisonB2 % inhibition ([2]; amount oil 30 μL/20 mL plate) of the same compound?
A: 56%

Q: What about the PoisonB1 % inhibition ([2]; amount oil 45 μL/20 mL plate) of the same compound?
A: 100%

Q: What about the PoisonB2 % inhibition ([2]; amount oil 45 μL/20 mL plate) of the same compound?
A: 92%

Q: What about the PoisonB1 % inhibition ([2]; amount oil 60 μL/20 mL plate) of the same compound?
A: 100%

Q: What about the PoisonB2 % inhibition ([2]; amount oil 60 μL/20 mL plate) of the same compound?
A: 100%

Q: What about the PoisonB1 % inhibition ([2]; amount oil 75 μL/20 mL plate) of the same compound?
A: 100%

Q: And the PoisonB2 % inhibition ([2]; amount oil 75 μL/20 mL plate)?
A: 100%

Q: And the PoisonB1 % inhibition ([2]; amount oil 150 μL/20 mL plate)?
A: 100%

Q: And the PoisonB2 % inhibition ([2]; amount oil 150 μL/20 mL plate)?
A: 100%

Q: What about the “Inhibition of R. solani growth by contact (poison bed assay), in words” value [2] of the same compound?
A: potent inhibitors

Q: And the “Effect (fumigation)” value ([3]; amount oil 15 μL/20 mL plate)?
A: S

Q: What about the “Effect (poison bed, contact action)” value ([3]; amount oil 15 μL/20 mL plate) of the same compound?
A: S

Q: What about the “Effect (fumigation)” value ([3]; amount oil 30 μL/20 mL plate) of the same compound?
A: S

Q: And the “Effect (poison bed, contact action)” value ([3]; amount oil 30 μL/20 mL plate)?
A: S

Q: What about the “Effect (fumigation)” value ([3]; amount oil 45 μL/20 mL plate) of the same compound?
A: S

Q: And the “Effect (poison bed, contact action)” value ([3]; amount oil 45 μL/20 mL plate)?
A: S

Q: And the “Effect (fumigation)” value ([3]; amount oil 60 μL/20 mL plate)?
A: S

Q: What about the “Effect (poison bed, contact action)” value ([3]; amount oil 60 μL/20 mL plate) of the same compound?
A: S

Q: And the “Effect (fumigation)” value ([3]; amount oil 75 μL/20 mL plate)?
A: S

Q: And the “Effect (poison bed, contact action)” value ([3]; amount oil 75 μL/20 mL plate)?
A: S

Q: What about the “Effect (fumigation)” value ([3]; amount oil 150 μL/20 mL plate) of the same compound?
A: S

Q: What about the “Effect (poison bed, contact action)” value ([3]; amount oil 150 μL/20 mL plate) of the same compound?
A: S

Q: What about the “Fungicidal vs fungistatic nature” value ([3]; in vitro, fumigation and contact action) of the same compound?
A: fungistatic

Q: What about the “% Disease suppression (+ PE + R. solani)” value [4] of the same compound?
A: 58.33%

Q: And the “Avg. seed Germination (+ PE + R. solani)” value [4]?
A: 7.00

Q: And the “% Seed germination (+ PE only)” value [5]?
A: 75.00%

Q: And the “Avg. seed germination (+ PE only)” value [5]?
A: 9.00

Q: `CC=Cc1ccc(OC)cc1` [Anethole] was tested. Which Fumig1 % inhibition ([1]; amount oil 15 μL/20 mL plate) did it give?
A: 99%

Q: And the Fumig2 % inhibition ([1]; amount oil 15 μL/20 mL plate)?
A: 90%

Q: What about the Fumig2 % inhibition ([1]; amount oil 30 μL/20 mL plate) of the same compound?
A: 85%

Q: And the Fumig2 % inhibition ([1]; amount oil 45 μL/20 mL plate)?
A: 86%

Q: What about the Fumig2 % inhibition ([1]; amount oil 60 μL/20 mL plate) of the same compound?
A: 89%

Q: And the Fumig2 % inhibition ([1]; amount oil 75 μL/20 mL plate)?
A: 97%

Q: And the Fumig2 % inhibition ([1]; amount oil 150 μL/20 mL plate)?
A: 102%

Q: What about the “Inhibition of R. solani growth by fumigation action, in words” value [1] of the same compound?
A: potent inhibitors

Q: What about the PoisonB1 % inhibition ([2]; amount oil 15 μL/20 mL plate) of the same compound?
A: 100%

Q: What about the PoisonB2 % inhibition ([2]; amount oil 15 μL/20 mL plate) of the same compound?
A: 100%

Q: What about the PoisonB1 % inhibition ([2]; amount oil 30 μL/20 mL plate) of the same compound?
A: 100%

Q: And the PoisonB2 % inhibition ([2]; amount oil 30 μL/20 mL plate)?
A: 100%

Q: And the PoisonB1 % inhibition ([2]; amount oil 45 μL/20 mL plate)?
A: 100%

Q: And the PoisonB2 % inhibition ([2]; amount oil 45 μL/20 mL plate)?
A: 100%

Q: And the PoisonB1 % inhibition ([2]; amount oil 60 μL/20 mL plate)?
A: 100%

Q: What about the PoisonB2 % inhibition ([2]; amount oil 60 μL/20 mL plate) of the same compound?
A: 100%

Q: And the PoisonB1 % inhibition ([2]; amount oil 75 μL/20 mL plate)?
A: 100%

Q: And the PoisonB2 % inhibition ([2]; amount oil 75 μL/20 mL plate)?
A: 100%

Q: What about the PoisonB1 % inhibition ([2]; amount oil 150 μL/20 mL plate) of the same compound?
A: 100%

Q: And the PoisonB2 % inhibition ([2]; amount oil 150 μL/20 mL plate)?
A: 100%

Q: What about the “Inhibition of R. solani growth by contact (poison bed assay), in words” value [2] of the same compound?
A: potent inhibitors

Q: And the “Effect (fumigation)” value ([3]; amount oil 15 μL/20 mL plate)?
A: S

Q: And the “Effect (poison bed, contact action)” value ([3]; amount oil 15 μL/20 mL plate)?
A: S

Q: And the “Effect (fumigation)” value ([3]; amount oil 30 μL/20 mL plate)?
A: S

Q: What about the “Effect (poison bed, contact action)” value ([3]; amount oil 30 μL/20 mL plate) of the same compound?
A: S

Q: And the “Effect (fumigation)” value ([3]; amount oil 45 μL/20 mL plate)?
A: S

Q: What about the “Effect (fumigation)” value ([3]; amount oil 60 μL/20 mL plate) of the same compound?
A: S

Q: What about the “Effect (fumigation)” value ([3]; amount oil 75 μL/20 mL plate) of the same compound?
A: S

Q: And the “Effect (fumigation)” value ([3]; amount oil 150 μL/20 mL plate)?
A: S

Q: And the “Fungicidal vs fungistatic nature at higher concentrations” value ([3]; in vitro, higher concentrations)?
A: fungicidal

Q: And the “% Disease suppression (+ PE + R. solani)” value [4]?
A: 58.33%

Q: And the “Avg. seed Germination (+ PE + R. solani)” value [4]?
A: 7.00

Q: What about the “% Seed germination (+ PE only)” value [5, 6] of the same compound?
A: 75.00%

Q: And the “Avg. seed germination (+ PE only)” value [5, 6]?
A: 9.00
